Values after ≈ are worked out from the molar mass of the structure shown. Like-named read-outs stand apart in the source and are kept apart here. Blank lines part the entries; values can stand above or below the molecule they belong to. Starred links: 1 amine or outer side, 2 acyl side, 3 side chain; linkers in the order of their positions; H or OH if unused. Positions of bridges follow the written chain, without caps; N, C: chain ends. Non-standard residues stand in square brackets, D forms with d. Residues, ends and D or L forms follow the SMILES beside them. Groups on a side chain read outwards from the residue. *: point of attachment. C20 diacid = O=C(O)CCCCCCCCCCCCCCCCCCC(=O)*; C18 diacid = O=C(O)CCCCCCCCCCCCCCCCC(=O)*; γGlu = O=C(O)[C@H](CCC(=O)[*:2])N[*:1]; Stearoyl = CCCCCCCCCCCCCCCCCC(=O)*
What was measured:
[1] = in serum; cited from earlier work
[2] = in vivo; cited from earlier work
[3] = Solubility of amylin analog polypeptides (visual inspection, room temperature); assay type: physicochemical
Procedure: The analog polypeptides described herein were tested for solubility in saline 20% DMSO in water (i.e., bioassay buffer) or in aqueous (DI water) at room temperature. Samples were visually inspected for clarity of the sample, any appearance of turbidity or haziness.

[4] = in vivo; set-up: species or system Sprague-Dawley rats; details: rat, iv, 0.033 mg/kg
Outline: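 Peptide plasma levels measured by UPLC-MS/MS (C18, product-ion monitoring) after protein precipitation or WCX SPE, calibrated in K2EDTA/protease-inhibitor rat plasma. Dosing in non-fasted male Sprague-Dawley rats (n=3): 0.033 mg/kg over 1 h by IV or SC infusion, or 0.3 mg/kg SC bolus; sampling up to 48 h.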

[5] = 27-day weight loss in combination with exenatide; details: LE DIO rats
[6] = Acute food intake inhibition after SC bolus injection (BioDAQ); details: Long Evans rats on 45% high fat diet
[7] = 13-day dose-response body weight loss, continuous SC infusion by osmotic mini-pump; details: 13 days, LE DIO rats; for DIO Dose Response 13 d weight loss, ΔΔ % weight loss: from baseline and vehicle control
[8] = Stability of amylin analog polypeptides in solution at 37° C. (purity by LC/MS and HPLC); assay type: physicochemical; details: 1 mg/ml, trifluoro acetate salt
Procedure: Several amylin analog polypeptides described herein were tested, as the trifluoro acetate salt, for stability in DMSO (i.e., organosulfur solvent) or in aqueous (i.e., in DI water) at 1 mg/ml solution. These analog polypeptides were incubated at 37° C., and samples were withdrawn at various time intervals and analyzed by LC/MS and HPLC for determination of purity and mass of the parent peptide and extent of any degradation products. The purity results of these analyses are shown in Tables 6A & 6B and are considered indicative of stability.

Molecule: human amylin (KCNTATCATQRLANFLVHSSNNFGAILSSTNVGSNTY) [37-residue polypeptide hormone co-secreted with insulin from pancreatic β-cells]
half-life [1]: about 13 minutes

Molecule: davalintide
half-life [2]: about 26 minutes

solubility ([3]; Solubility): 63 mg/mL (≈ 13.6 mM)
Vd ([4]; male, Sprague-Dawley): 0.398 L/kg
clearance ([4]; male, Sprague-Dawley): 0.705 mL/min/kg
half-life ([4]; male, Sprague-Dawley): 7.53 h
Molecule: CCCCCCCCCCCCCCCCCC(=O)N[C@@H](CCC(=O)N[C@@H](CCC(=O)N[C@@H](CCC(=O)NCCCC[C@@H](NC(=O)[C@H](CCC(=O)O)NC(=O)[C@H](CC(N)=O)NC(=O)[C@H](C)NC(=O)[C@H](CC(C)C)NC(=O)[C@H](CCCNC(=N)N)NC(=O)[C@H](CCC(N)=O)NC(=O)[C@@H](NC(=O)[C@H](C)NC(=O)[C@@H]1CSSC[C@H](NC(=O)[C@@H](N)CO)C(=O)N[C@@H](CC(N)=O)C(=O)N[C@@H]([C@@H](C)O)C(=O)N[C@@H](CO)C(=O)N[C@@H]([C@@H](C)O)C(=O)N1)[C@@H](C)O)C(=O)N[C@@H](Cc1c[nH]cn1)C(=O)N[C@@H](CCCCN)C(=O)N[C@@H](CO)C(=O)N[C@@H](CO)C(=O)N[C@@H](CC(N)=O)C(=O)N[C@@H](CC(N)=O)C(=O)N[C@@H](Cc1ccccc1)C(=O)NCC(=O)N1CCC[C@H]1C(=O)N[C@H](C(=O)N[C@@H](CC(C)C)C(=O)N1CCC[C@H]1C(=O)N1CCC[C@H]1C(=O)N[C@H](C(=O)N[C@@H](CCCCN)C(=O)N[C@H](C(=O)NCC(=O)N[C@@H](CO)C(=O)N[C@@H](CCC(=O)O)C(=O)N[C@H](C(=O)N[C@@H](Cc1ccc(O)cc1)C(N)=O)[C@@H](C)O)C(C)C)[C@@H](C)O)[C@@H](C)CC)C(=O)O)C(=O)O)C(=O)O [Compound A13] (H-SCNTSTCATQRLANE[dK]([γGlu-γGlu-γGlu-Stearoyl])HKSSNNFGPILPPTKVGSETY-NH2; disulfide 2-7; N-terminus assumed)
DIO Combination + Exenatide 27 d weight loss, ΔΔ % weight loss ([5]; dose 3 mcg/kg + Exenatide 10 mcg/kg): 9%
DIO Combination + Exenatide 27 d weight loss, ΔΔ % weight loss ([5]; dose 10 mcg/kg + Exenatide 10 mcg/kg): 12%
DIO Combination + Exenatide 27 d weight loss, ΔΔ % weight loss ([5]; dose 30 mcg/kg + Exenatide 10 mcg/kg): 12%
Acute Food Intake % Inhibition vs vehicle ([6]; 0-24 hr after acute SC dosing): 67%
Acute Food Intake % Inhibition vs vehicle ([6]; 25-48 hr after acute SC dosing): 37%
Acute Food Intake % Inhibition vs vehicle ([6]; 49-72 hr after acute SC dosing): 6%
DIO Dose Response 13 d weight loss, ED50 [7]: 0.055 mg/kg
DIO Dose Response 13 d weight loss, ΔΔ % weight loss [7]: 5%

solubility ([3]; deionised water, TFA salt, DI H2O, room temperature, read-out: Solubility): 138 mg/mL
Vd ([4]; male, Sprague-Dawley): 0.175 L/kg
clearance ([4]; male, Sprague-Dawley): 0.101 mL/min/kg
half-life ([4]; male, Sprague-Dawley): 22.6 h
Molecule: CC[C@H](C)[C@H](NC(=O)[C@@H]1CCCN1C(=O)CNC(=O)[C@H](Cc1ccccc1)NC(=O)[C@H](CC(N)=O)NC(=O)[C@H](CC(N)=O)NC(=O)[C@H](CO)NC(=O)[C@H](CO)NC(=O)[C@H](CCCCN)NC(=O)[C@H](Cc1c[nH]cn1)NC(=O)[C@H](CC(C)C)NC(=O)[C@H](CCC(=O)O)NC(=O)[C@H](CC(N)=O)NC(=O)[C@H](C)NC(=O)[C@H](CC(C)C)NC(=O)[C@H](CCCNC(=N)N)NC(=O)[C@H](CCC(N)=O)NC(=O)[C@@H](NC(=O)[C@H](C)NC(=O)[C@@H]1CSSC[C@H](NC(=O)[C@@H](N)CCCCNC(=O)CC[C@H](NC(=O)CC[C@H](NC(=O)CCCCCCCCCCCCCCCCC(=O)O)C(=O)O)C(=O)O)C(=O)N[C@@H](CC(N)=O)C(=O)N[C@@H]([C@@H](C)O)C(=O)N[C@@H](CO)C(=O)N[C@@H]([C@@H](C)O)C(=O)N1)[C@@H](C)O)C(=O)N[C@@H](CC(C)C)C(=O)N1CCC[C@H]1C(=O)N1CCC[C@H]1C(=O)N[C@H](C(=O)N[C@@H](CCCCN)C(=O)N[C@H](C(=O)NCC(=O)N[C@@H](CO)C(=O)N[C@@H](CCC(=O)O)C(=O)N[C@H](C(=O)N[C@@H](Cc1ccc(O)cc1)C(N)=O)[C@@H](C)O)C(C)C)[C@@H](C)O [Compound A65] (H-K([γGlu-γGlu-C18 diacid])CNTSTCATQRLANELHKSSNNFGPILPPTKVGSETY-NH2; disulfide 2-7; N-terminus assumed)
DIO Combination + Exenatide 27 d weight loss, ΔΔ % weight loss ([5]; dose 100 mcg/kg + Exenatide 10 mcg/kg): 8%
DIO Combination + Exenatide 27 d weight loss, ΔΔ % weight loss ([5]; dose 300 mcg/kg + Exenatide 10 mcg/kg): 9%
DIO Combination + Exenatide 27 d weight loss, ΔΔ % weight loss ([5]; dose 600 mcg/kg + Exenatide 10 mcg/kg): 12%
Acute Food Intake % Inhibition vs vehicle ([6]; 0-24 hr after acute SC dosing): 50%
Acute Food Intake % Inhibition vs vehicle ([6]; 25-48 hr after acute SC dosing): 25%
Acute Food Intake % Inhibition vs vehicle ([6]; 49-72 hr after acute SC dosing): 14%
DIO Dose Response 13 d weight loss, ED50 [7]: 0.07 mg/kg
DIO Dose Response 13 d weight loss, ΔΔ % weight loss [7]: 3%

purity of parent peptide (indicative of stability) ([8]; 20% DMSO in DI Water, Day 0 room temp): 98.8%
purity of parent peptide (indicative of stability) ([8]; 20% DMSO in DI Water, Day 5 37° C.): 98.1%
purity of parent peptide (indicative of stability) ([8]; 20% DMSO in DI Water, Day 8 37° C.): 98.6%
purity of parent peptide (indicative of stability) ([8]; 20% DMSO in DI Water, Day 12 37° C.): 97.9%
purity of parent peptide (indicative of stability) ([8]; 20% DMSO in DI Water, Day 19 37° C.): 97.2%
purity of parent peptide (indicative of stability) ([8]; 20% DMSO in DI Water, Day 25 37° C.): 97.3%
purity of parent peptide (indicative of stability) ([8]; 20% DMSO in DI Water, Day 32 37° C.): 97.2%
purity of parent peptide (indicative of stability) ([8]; DI Water, Day 0 room temp): 100%
purity of parent peptide (indicative of stability) ([8]; DI Water, Day 5 37° C.): 99.1%
purity of parent peptide (indicative of stability) ([8]; DI Water, Day 8 37° C.): 98.1%
purity of parent peptide (indicative of stability) ([8]; DI Water, Day 12 37° C.): 98.1%
purity of parent peptide (indicative of stability) ([8]; DI Water, Day 19 37° C.): 97.4%
purity of parent peptide (indicative of stability) ([8]; DI Water, Day 25 37° C.): 97.3%
purity of parent peptide (indicative of stability) ([8]; DI Water, Day 32 37° C.): 88.5%
solubility ([3]; Acetate salt, 20% DMSO in DI H2O, room temperature, read-out: Solubility): 123 mg/mL
solubility ([3]; Acetate salt, DI H2O, room temperature, read-out: Solubility): 104 mg/mL
solubility ([3]; Acetate salt, Saline, room temperature, read-out: Solubility): 88.3 mg/mL
solubility ([3]; TFA salt, 20% DMSO in DI H2O, room temperature, read-out: Solubility): 56 mg/mL
solubility ([3]; TFA salt, DI H2O, room temperature, read-out: Solubility): 103 mg/mL
Vd [4]: 0.182 L/kg
clearance [4]: 0.0641 mL/min/kg
half-life [4]: 37.2 h
Molecule: CC[C@H](C)[C@H](NC(=O)[C@@H]1CCCN1C(=O)CNC(=O)[C@H](Cc1ccccc1)NC(=O)[C@H](CC(N)=O)NC(=O)[C@H](CC(N)=O)NC(=O)[C@H](CO)NC(=O)[C@H](CO)NC(=O)[C@H](CCCCN)NC(=O)[C@H](Cc1c[nH]cn1)NC(=O)[C@H](CC(C)C)NC(=O)[C@H](CCC(=O)O)NC(=O)[C@H](CC(N)=O)NC(=O)[C@H](C)NC(=O)[C@H](CC(C)C)NC(=O)[C@H](CCCNC(=N)N)NC(=O)[C@H](CCC(N)=O)NC(=O)[C@@H](NC(=O)[C@H](C)NC(=O)[C@@H]1CSSC[C@H](NC(=O)[C@@H](N)CCCCNC(=O)CC[C@H](NC(=O)CC[C@H](NC(=O)CCCCCCCCCCCCCCCCCCC(=O)O)C(=O)O)C(=O)O)C(=O)N[C@@H](CC(N)=O)C(=O)N[C@@H]([C@@H](C)O)C(=O)N[C@@H](CO)C(=O)N[C@@H]([C@@H](C)O)C(=O)N1)[C@@H](C)O)C(=O)N[C@@H](CC(C)C)C(=O)N1CCC[C@H]1C(=O)N1CCC[C@H]1C(=O)N[C@H](C(=O)N[C@@H](CCCCN)C(=O)N[C@H](C(=O)NCC(=O)N[C@@H](CO)C(=O)N[C@@H](CCC(=O)O)C(=O)N[C@H](C(=O)N[C@@H](Cc1ccc(O)cc1)C(N)=O)[C@@H](C)O)C(C)C)[C@@H](C)O [Compound A64] (H-K([γGlu-γGlu-C20 diacid])CNTSTCATQRLANELHKSSNNFGPILPPTKVGSETY-NH2; disulfide 2-7; N-terminus assumed)

Source: US12018059B2, “Human amylin analog polypeptides and methods of use” (Intarcia Therapeutics, Inc., priority 2018, dated 2024)
